Values of other authors, collected in patent US9498424B2, “Active mixtures of acylated oligopeptides and troxerutin” (Symrise AG, priority 2013, dated 2016).

Test system: mice

In the case of `C[C@@H]1O[C@@H](OC[C@H]2O[C@@H](Oc3c(-c4ccc(OCCO)c(OCCO)c4)oc4cc(OCCO)cc(O)c4c3=O)[C@H](O)[C@@H](O)[C@@H]2O)[C@H](O)[C@H](O)[C@H]1O` [Troxerutin], the CNS insulin resistance is given as “reverse CNS insulin resistance” and the “reactive oxygen species induced by a high-cholesterol diet” value is given as “reduce reactive oxygen species”.
